{"source": "patent US20030092037A1", "about": "“Elk1 phosphorylation related gene” (priority 2001, published 2003)", "tested_on": "MAP kinase cascade activating protein according to SEQ ID NO: 4, 6, 12, 16, 18, 22, 26, 28, 30, 44, 50, 52, 60, 68, 72, 104, 110, 112, 116, 122, 132, 142, 146 …", "assay": "Screening for inhibitors in 293-EBNA reporter systems expressing MAP kinase cascade activating proteins", "assay_type": "cell-based, human", "conditions": "compound 10 μM; 50 ng expression plasmid; 24 hours; all 27 SEQ ID NO systems", "description": "(in the presence of 5% CO2). Then, using FuGENE6 (Roche), 50 ng of each of the expression plasmids obtained in Example 2 above which comprise a gene encoding the MAP kinase cascade activating protein according to SEQ ID NO: 4, 6, 12, 16, 18, 22, 26, 28, 30, 44, 50, 52, 60, 68, 72, 104, 110, 112, 116, 122, 132, 142, 146, 148, 150, 152 or 154 were respectively co-transfected in a well with 60 ng of pFR-Luc ([…]), 0.25 ng of pFA2-Elk1 ([…]), 5 ng of pcDNA 3.1 (+) (INVITROGEN) into which human p38 gene had been incorporated and 30 ng of pcDNA 3.1 (+) (INVITROGEN) into which human JNJ1 β 1 gene had been incorporated. The method used for introduction was in accordance with the attached protocol. After culturing for 2 hours at 37° C., any one of 1000 types of compound that were held in stock, was added to a final concentration of 10 μM per well, and after further culturing for 24 hours at 37° C., reporter activity, which reflects MAP kinase cascade activition, was measured by Picagene LT2 (purchased from Toyo Ink Manufacturing) in accordance with the manufacturer's instructions. Using a well to which no compound was added as a control, compounds were screened to identify a compound which reduced reporter activity in the well to which it was added to 50% or lower. […]", "data": [{"smiles": "CN[C@@H]1C[C@H]2O[C@@](C)([C@@H]1OC)n1c3ccccc3c3c4c(c5c6ccccc6n2c5c31)C(=O)NC4", "note": "[staurosporine]", "values": [{"measurement": "reporter activity relative to control well to which no compound was added", "result": "≤ 50", "unit": "%"}]}]}
